Source: publication PMC12040169 (PLOS Biology, 2025)

Test: in vitro
Conditions: human, hela cells, % viability

SMILES | viability at 28.5 h, 10 µM | viability at 28.5 h, 10 µM (bulk resorufin, single well)
Cc1cc(C)c2c(N)c(C(=O)O)sc2n1 [CBK131868] | 87.8% | –
CC(=O)c1sc2nc(C)cc(C)c2c1N [CBK131882] | 90.5% | –
N#Cc1c(C(F)(F)F)cc(-c2ccc(Cl)cc2)nc1SCC(=O)O [CBK131885] | 97.5% | –
CC(=O)c1cccc(-n2c(CCC(=O)O)ccc2-c2ccc(Br)cc2)c1 [CBK131888] | 98.2% | –
NS(=O)(=O)c1ccc(Nc2nc(-c3ccccc3)c(CC(=O)O)s2)cc1 [CBK131899] | 91.6% | –
Cc1nc(Oc2ccccc2)c2c3c(sc2n1)CCCC3 [CBK131919] | 101% | –
Cc1nc(NCCO)c2c3c(sc2n1)CCCC3 [CBK131920] | 90.1% | –
O=C(CSCc1ccc(Cl)cc1Cl)Nc1nccs1 [CBK131921] | 103% | –
O=C(Cc1ccc(F)cc1F)N1CCC(Sc2ccc(-c3ccccc3)cc2)CC1 [CBK131950] | 105% | –
O=C(c1cc(F)c(F)cc1F)N1CCC2(CCCN(Cc3ccc4ccccc4c3)C2)C1 (stereo not drawn) [CBK131998] | 97.8% | –
O=C(c1cc(F)c(F)cc1F)N1CCC2(CCCN(C/C=C/c3ccccc3)C2)C1 (stereo not drawn) [CBK132001] | 107% | –
CN(C)CCCN1CCCC2(CCN(C(=O)c3cc(F)c(F)cc3F)C2)C1 (stereo not drawn) [CBK132005] | 96.5% | –
O=C(CN1CCCC2(CCN(C(=O)c3cc(F)c(F)cc3F)C2)C1)Nc1ccc(F)c(Cl)c1 (stereo not drawn) [CBK132008] | 96.9% | –
O=C(c1cc(F)c(F)cc1F)N1CCC2(CCCN(Cc3cc(=O)[nH]c(=O)[nH]3)C2)C1 (stereo not drawn) [CBK132010] | 101% | –
O=C(c1cc(F)c(F)cc1F)N1CCC2(CCCN(CCN3CCOCC3)C2)C1 (stereo not drawn) [CBK132015] | 82.8% | –
CCC1(CC)OC(NC(C)c2ccccc2F)=NC1=O (stereo not drawn) [CBK132018] | 87.1% | –
O=C(CN1CCCC2(CCN(C(=O)Cc3c[nH]c4ccccc34)C2)C1)Nc1ccc(F)c(Cl)c1 (stereo not drawn) [CBK132047] | 108% | –
O=C(Cc1c[nH]c2ccccc12)N1CCC2(CCCN(Cc3cc(=O)[nH]c(=O)[nH]3)C2)C1 (stereo not drawn) [CBK132049] | 102% | –
Cc1ccc2cc(CN(Cc3ccc(N(C)C)cc3)C(=O)NC3CCCCC3)c(=O)[nH]c2c1C [CBK132070] | 97.3% | –
COc1ccc2cc(CN(CCNC(=O)OC(C)(C)C)C(=O)NC3CCCCC3)c(=O)[nH]c2c1 [CBK132074] | 101% | –
Cc1ccc2cc(CN(CCNC(=O)OC(C)(C)C)C(=O)NCc3ccccc3)c(=O)[nH]c2c1C [CBK132097] | 90.2% | –

SMILES | viability at 28.5 h, 10 µM | viability at 28.5 h, 10 µM (bulk resorufin, single well)
O=C(c1cc(F)c(F)cc1F)N1CCC2(CCN(Cc3cccc(C(F)(F)F)c3)C2)C1 (stereo not drawn) [CBK132130] | 102% | –
NC(=O)CN1CCC2(CCN(C(=O)c3cc(F)c(F)cc3F)C2)C1 (stereo not drawn) [CBK132140] | 86.6% | –
O=C(c1cc(F)c(F)cc1F)N1CCC2(CCN(Cc3cc(=O)[nH]c(=O)[nH]3)C2)C1 (stereo not drawn) [CBK132141] | 91.4% | –
COc1ccc(C(=O)N2CCC3(CCN(Cc4ccc(OC(F)(F)F)cc4)C3)C2)cc1OC (stereo not drawn) [CBK132148] | 89% | –
COc1ccc(C(=O)N2CCC3(CCN(Cc4cc(OC)c(OC)c(OC)c4)C3)C2)cc1OC (stereo not drawn) [CBK132149] | 100% | –
COc1ccc(C(=O)N2CCC3(CCN(Cc4ccc(Cl)c(Cl)c4)C3)C2)cc1OC (stereo not drawn) [CBK132150] | 97.3% | –
COc1ccc(C(=O)N2CCC3(CCN(Cc4c(F)cccc4F)C3)C2)cc1OC (stereo not drawn) [CBK132152] | 92.8% | –
COc1ccc(C(=O)N2CCC3(CCN(CCCCC4NC(=O)NC4=O)C3)C2)cc1OC (stereo not drawn) [CBK132169] | 83% | –
CCOC(=O)C1(c2ccccc2)CCN(C(=O)Cc2ccsc2)CC1 [CBK132172] | – | 93%
CCOC(=O)C1(c2ccccc2)CCN(C(=O)CCSC)CC1 [CBK132184] | – | 113%
CCOC(=O)C1(c2ccccc2)CCN(C(=O)c2cccc3[nH]ccc23)CC1 [CBK132193] | – | 95.7%
CCOC(=O)C1(c2ccccc2)CCN(C(=O)CCC(=O)O)CC1 [CBK132197] | – | 94.7%
CCOC(=O)C1(c2ccccc2)CCN(C(=O)CCC(=O)OC)CC1 [CBK132198] | – | 79.8%
CCOC(=O)C1(c2ccccc2)CCN(C(=O)c2ccc(S(N)(=O)=O)cc2)CC1 [CBK132200] | – | 99.7%
CCOC(=O)C1(c2ccccc2)CCN(C(=O)C(c2ccccc2)c2ccccc2)CC1 [CBK132202] | – | 100%
CCOC(=O)C1(c2ccccc2)CCN(C(=O)c2ccc3nc[nH]c3c2)CC1 [CBK132208] | – | 103%
CCOC(=O)C1(c2ccccc2)CCN(C(=O)CCN2CCN(C)CC2)CC1 [CBK132211] | – | 86.2%
CCOc1cc(C(O)c2nnc(-c3ccccc3)o2)ccc1OCC(C)C (stereo not drawn) [CBK132385] | 89.1% | –
N#Cc1ccc(-n2nc(-c3ccccc3)c3ccccc3c2=O)c([N+](=O)[O-])c1 [CBK132567] | 96.6% | –
O=C(c1ccoc1)N1CCC2(CCCN(Cc3ccc4ccccc4c3)C2)C1 (stereo not drawn) [CBK132811] | 90.1% | –
NC(=O)CCN1CCCC2(CCN(C(=O)c3ccoc3)C2)C1 (stereo not drawn) [CBK132816] | 96.9% | –

SMILES | viability at 28.5 h, 10 µM | viability at 28.5 h, 10 µM (bulk resorufin, single well)
O=C(c1ccoc1)N1CCC2(CCCN(CCCn3c(=O)[nH]c4ccccc43)C2)C1 (stereo not drawn) [CBK132818] | 90.1% | –
O=C(c1ccoc1)N1CCC2(CCCN(Cc3cc(=O)[nH]c(=O)[nH]3)C2)C1 (stereo not drawn) [CBK132823] | 97.8% | –
CSCCN1CCCC2(CCN(C(=O)c3ccoc3)C2)C1 (stereo not drawn) [CBK132835] | 88.7% | –
COc1ccc(C(=O)N2CCC3(CCCN(CCCn4c(=O)[nH]c5ccccc54)C3)C2)cc1OC (stereo not drawn) [CBK132856] | 93.1% | –
COc1ccc(C(=O)N2CCC3(CCCN(CCN4C(=O)c5ccccc5C4=O)C3)C2)cc1OC (stereo not drawn) [CBK132862] | 98.1% | –
CCc1cc(NC[C@@H](O)CO)nc(-c2cc(F)c(F)c(F)c2)n1 [CBK132879] | 94.2% | –
CCc1cc(NC[C@@H](O)CO)nc(-c2ccc(F)c(Cl)c2)n1 [CBK132880] | 74.4% | –
Cn1c(=O)c2c(ncn2CC(=O)Nc2ccc(Cl)cc2Cl)n(C)c1=O [CBK133227] | 86% | –
CC(C)NC(=O)Cn1cnc2c1c(=O)n(C)c(=O)n2C [CBK133257] | 86.9% | –
Cc1ccc(NC(=O)Cn2cnc3c2c(=O)n(C)c(=O)n3C)c(C)c1 [CBK133276] | 90.6% | –
Cn1c(=O)c2c(ncn2Cc2ccccc2)n(C)c1=O [CBK133402] | 102% | –
Cc1ccc(NC(=O)Cn2cnc3c2c(=O)n(C)c(=O)n3C)nc1 [CBK133463] | 95.9% | –
Cn1c(=O)c2c(ncn2CC(=O)Nc2ccccc2C#N)n(C)c1=O [CBK133465] | 89.6% | –
Cn1c(=O)c2c(ncn2CC(=O)Nc2cccc3ccccc23)n(C)c1=O [CBK133515] | 95.8% | –
COc1ccc(NC(=O)Cn2cnc3c2c(=O)n(C)c(=O)n3C)cc1Cl [CBK134216] | 95.9% | –
Cn1c(=O)c2c(ncn2Cc2ccc(C#N)cc2)n(C)c1=O [CBK134217] | 106% | –
Cc1ccc(Cn2c(OCCN(C)C)nc3c2c(=O)n(C)c(=O)n3C)cc1 [CBK134241] | 89.3% | –
COc1ccc(CCNc2ncnc3[nH]cnc23)cc1OC [CBK134342] | 110% | –
CCc1ccc2[nH]c(=O)c(CN(CCN(C)C)C(=S)NCc3ccccc3)cc2c1 [CBK134905] | 98.4% | –
Cc1cccc(N=C(S)N(CCN(C)C)Cc2cc3cc(C)cc(C)c3nc2O)c1 [CBK135105] | 96.2% | –
CC(C)(N)C(=O)N1CC(C(=O)N2CC3(CCN(S(C)(=O)=O)CC3)c3ccccc32)C(c2cc3ccccc3o2)C1 (stereo not drawn) [CBK136734T] | 117% | –

SMILES | viability at 28.5 h, 10 µM | viability at 28.5 h, 10 µM (bulk resorufin, single well)
O=C(Cc1ccsc1)N1CCC2(CCN(Cc3ccccc3)CC2)C1 [CBK136742] | 89.8% | –
CSCCC(=O)N1CCC2(CCN(Cc3ccccc3)CC2)C1 [CBK136757] | 101% | –
O=C(c1cncnc1)N1CCC2(CCN(Cc3ccccc3)CC2)C1 [CBK136782] | 101% | –
Cc1cc(CC(=O)N2CCC(Cn3cncn3)(C3CCCCC3)CC2)on1 [CBK136795] | 88.8% | –
O=C(Cc1nnn[nH]1)N1CCC(Cn2cncn2)(C2CCCCC2)CC1 [CBK136796] | 92.2% | –
COc1ccccc1OCC(=O)N1CCC(Cn2cncn2)(C2CCCCC2)CC1 [CBK136797] | 91.9% | –
O=C1NC(=O)C(CC(=O)N2CCC(Cn3cncn3)(C3CCCCC3)CC2)N1 (stereo not drawn) [CBK136808] | 94.3% | –
O=C(O)CCC(=O)N1CCC(Cn2cncn2)(C2CCCCC2)CC1 [CBK136809] | 94.8% | –
COC(=O)CCC(=O)N1CCC(Cn2cncn2)(C2CCCCC2)CC1 [CBK136810] | 90.8% | –
O=C(CC1CC1)N1CCC2(CCN(Cc3ccccc3)C2)C1 (stereo not drawn) [CBK136825] | 93.9% | –
CSCCC(=O)N1CCC2(CCN(Cc3ccccc3)C2)C1 (stereo not drawn) [CBK136838] | 93.8% | –
Cc1cn(CC(=O)N2CCC3(CCN(Cc4ccccc4)C3)C2)c(=O)[nH]c1=O (stereo not drawn) [CBK136840] | 91.6% | –
COC(=O)CCC(=O)N1CCC2(CCN(Cc3ccccc3)C2)C1 (stereo not drawn) [CBK136852] | 116% | –
O=C(c1ccc2nc[nH]c2c1)N1CCC2(CCN(Cc3ccccc3)C2)C1 (stereo not drawn) [CBK136862] | 94.1% | –
O=C(Cc1ccsc1)N1CCCC2(CCN(Cc3ccccc3)C2)C1 (stereo not drawn) [CBK136868] | 86.7% | –
O=C(Cc1ccc(Cl)c(Cl)c1)N1CCCC2(CCN(Cc3ccccc3)C2)C1 (stereo not drawn) [CBK136872] | 91.9% | –
O=C(c1ccc2occc2c1)N1CCCC2(CCN(Cc3ccccc3)C2)C1 (stereo not drawn) [CBK136882] | 105% | –
COc1ccc2[nH]cc(CC(=O)N3CCCC4(CCN(Cc5ccccc5)C4)C3)c2c1 (stereo not drawn) [CBK136883] | 93.5% | –
O=C(c1cccc2[nH]ccc12)N1CCCC2(CCN(Cc3ccccc3)C2)C1 (stereo not drawn) [CBK136887] | 93.5% | –
N#Cc1cccc(C(=O)N2CCCC3(CCN(Cc4ccccc4)C3)C2)c1 (stereo not drawn) [CBK136893] | 92% | –
CN1CCC[C@H]1C(=O)N1CCCC2(CCN(Cc3ccccc3)C2)C1 (stereo partly drawn) [CBK136901] | 90.7% | –
